Measurements taken from PubChem BioAssay (NCI).
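Exposure lasted 48 hours, with cells grown in 96-well plates and compounds tested at five concentrations. The concentration for full growth arrest is given as TGI.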

Assays:
Test in all cases: NCI tumour cell line growth inhibition, 48 h
DU-145 prostate = tested on: DU-145 prostate
HCC-2998 colon = tested on: HCC-2998 colon
HCT-15 colon = tested on: HCT-15 colon
MDA-MB-231 breast = tested on: MDA-MB-231 breast
MOLT-4 leukemia = tested on: MOLT-4 leukemia
NCI-H23 lung = tested on: NCI-H23 lung
SK-MEL-2 melanoma = tested on: SK-MEL-2 melanoma
SK-MEL-5 melanoma = tested on: SK-MEL-5 melanoma
T-47D breast = tested on: T-47D breast
U251 CNS = tested on: U251 CNS

Structure (SMILES)	TGI (DU-145 prostate) [µM]	TGI (HCC-2998 colon) [µM]	TGI (HCT-15 colon) [µM]	TGI (MDA-MB-231 breast) [µM]	TGI (MOLT-4 leukemia) [µM]	TGI (NCI-H23 lung) [µM]	TGI (SK-MEL-2 melanoma) [µM]	TGI (SK-MEL-5 melanoma) [µM]	TGI (T-47D breast) [µM]	TGI (U251 CNS) [µM]
N#Cc1nc(C(F)(F)F)oc1N	> 100	> 100	> 100	> 100	> 100	> 100	> 100	> 100	> 100	> 100
COc1ccc(/C=C2\Sc3nnc(C)n3N=C2c2cc(F)c(Cl)cc2Cl)cc1OC	27.8	32.6	21.9	79.8	> 100	26.7	33.6	36.2	> 100	30.2
COc1ccc2c(c1)c(=O)c1c(NCCCN(C)CCCNc3ccc4c(=O)n(CCN(C)C)c(=O)n5c6ccc(OC)cc6c(=O)c3c45)ccc3c(=O)n(CCN(C)C)c(=O)n2c31	1.18	0.544	0.617	2.56	0.118	0.704	2.44	0.813	9.43	1.26
CCOC(=O)c1[nH]cnc1/N=N/N(C)N	> 100	> 100	> 100	> 100	> 100	> 100	> 100	> 100	> 100	> 100
Cc1ccc(S(=O)(=O)Nc2nc3ccccc3c(=O)n2C2CCCCC2)cc1	> 100	> 100	> 100	> 100	> 100	> 100	> 100	> 100	> 100	> 100
COc1ccc(C[C@H]2NC(=O)/C=C/C[C@@H]([C@H](C)[C@H]3O[C@@H]3c3ccccc3)OC(=O)[C@H](CC(C)C)OC(=O)[C@H](C)CNC2=O)cc1	> 8.97e-05	> 0.0001	> 0.0001	> 8.79e-05	> 0.0001	> 7.34e-05	> 0.0001	7.06e-05	> 0.0001	> 0.0001
Nc1nc2cc(CNc3ccc(C(=O)O)cc3)ccc2nc1-c1ccccc1	> 100	> 100	> 100	> 100	> 100	> 100	> 100	> 100	> 100	> 100
CC1=NC2(CCCCC2)N(Cl)C(=O)C1SC#N (stereo not given)	> 100	42	66.6	36.5	23.7	58.9	48.2	39.8	62.7	37.4
COc1ccc(-c2cc(C3CC3)nc(SCC(=O)O)c2C#N)cc1	> 100	> 100	> 100	> 100	> 100	> 100	> 100	> 100	> 100	> 100
COc1ccc(C2c3cc4c(cc3OC(NNC(N)=O)C2C)OCO4)cc1 (stereo not given)	> 100	35	36.3	> 100	74.5	> 86.1	> 100	> 63.2	> 100	35.2
CC(=O)[C@H]1CC[C@H]2[C@@H]3CCC4=CC(=O)CC[C@]4(C)[C@H]3CC[C@]12C	94.3	31.4	69.3	33.2	35.2	35.7	44.3	24.8	57.8	34.1
COc1ccc2c(c1)C1Oc3ccccc3CC1(O)CO2 (stereo not given)	> 100	> 100	> 100	> 100	> 100	> 100	> 100	> 100	> 100	> 100
OC12C3C4CC5C(C4[C@@H]1Br)C2[C@@](O)(c1c(F)c(F)c(F)c(F)c1F)C53 (stereo not given in full)	> 100	> 100	> 100	> 100	> 100	> 100	69.2	59.3	> 100	> 100
CC(C)(C)OC(=O)NC1CCCC1C(O)(C1=CCCC1)C1=CCCC1 (stereo not given)	> 100	> 100	> 100	> 100	> 100	> 100	> 100	> 100	> 100	> 100
COc1cc(CCNC2=CC(=O)c3cccnc3C2=O)ccc1O	3.11	3.58	2.58	2.08	18.2	4.65	3.46	1.08	35.1	7.05
C/C=C1\CN2CCC34c5ccccc5N(C)C35OCC4(C(=O)OC)C1CC25 (stereo not given)	> 100	29.1	> 100	> 100	> 100	> 100	> 100	33.5	75.7	> 100
NNC(=O)Cc1cccnc1	> 100	> 100	> 100	> 100	> 100	> 100	> 100	> 100	> 100	> 100
